Reference: paper PMC10325900, “A conserved motif in the disordered linker of human MLH1 is vital for DNA mismatch repair and its function is diminished by a cancer family mutation” (Nucleic Acids Research, 2023)
No end group written: not given here.

What was measured:
[1] = target: MLH1-PMS2; test: Comparison of MMR restoration with theoretical binding curves of peptide to protein; set-up: species or system human; settings: theoretical binding curves at 11.1 nM MLH1; not a direct binding measurement; read-out: KD whose theoretical fraction of peptide binding to a protein corresponds to the degree of MMR restoration
Description: Figure 4. Reaction of DNA mismatch repair to addition of ConMot peptide. (A) Nuclear extract of MLH1-proficient HEK293 cells was used for performing the DNA mismatch repair reaction. Four reactions were undertaken, with two reactions supplemented with either 7.5 μM or 75 μM ConMot-32 peptide. A negative control reaction was performed by omitting the 37°C repair incubation. (B) MMR reactions were performed with nuclear extract of MLH1-deficient HEK293T cells supplemented with extract of cells transfected either with wildtype MLH1-PMS2 (positive control) or with MLH1-ΔConMot-PMS2. […] (C) The concentration-dependence of the MMR-activating effect of the ConMot-32 peptide observed in (B) was measured over a concentration range from 1–75 μM. […] Into this diagram, the average MMR activities (and standard deviations) measured in >3 of the experiment exemplarily shown in C were introduced as bars at ConMot-32 peptide concentrations of 1, 2.5, 7.5, 18 and 75 μM.
We investigated the effect of the ConMot peptide more closely by titrating the required peptide concentrations for activation. We determined that the mismatch repair reactions performed in this study contained approximately 280 fmol MLH1 (Supplementary Figure S4A and B), which is in good agreement with previous quantifications of MLH1-PMS2 in cells and extracts ([96]). […]
B. Immunoblot band intensities were determined. […]

[2] = Circular dichroism (CD) of ConMot peptide; format: physicochemical; settings: 33 μM peptide, 20 mM Na-phosphate pH 7.2, 20°C, 190–300 nm, three scans, 1 mm light path
Description: A blank was measured with buffer. […] A blank with buffer only was subtracted.

## SGSSDKVYAHQMVRTDSREQKLDAFLQPLSKP [ConMot-32]
[1]
  Kd: ~7.5 µM
[2]
  secondary structure formation by circular dichroism: Neither investigation provided evidence for secondary structure formation
